Like-named read-outs stand apart in the source and are kept apart here. Some results are limits rather than exact numbers.

Data set [1] deals with MKN45 human stomach cancer. The data set is described as follows: In vitro anti-tumor activity against MKN45 human stomach cancer (MTT). It counts as cell-based. As to conditions: MKN-45, MKN45, 72 h, MTT, read-out: IC50. Put shortly: (§1)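 Read-out is MTT formazan, dissolved in dimethyl sulfoxide after a 4-hour MTT (5 mg/ml) incubation. Before that, seeded cells (500 to 2,000 per well) grew 20 hours at 37° C and then received compound for 72 hours.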

Data set [2] has as its system A427 human lung cancer. The data set is described as follows: In vitro anti-tumor activity against A-427 human lung cancer (MTT). It counts as cell-based. As to conditions: A-427, 72 h, MTT, read-out: IC50. The essentials: as §1
In data set [3] the test system is murine P388 lymphocytic leukemia cells. In words: Increases in life span of mice implanted with murine P388 lymphocytic leukemia cells. As to conditions: Mus musculus, P388, ip, 720 h, ip. It counts as in vivo, SLC: BDF1 mice.
Data set [4] has as its system colon 26 murine tumor cells. In words: Tumor growth inhibition effect on colon 26 murine tumor cells implanted mice. The class given is in vivo, SLC: CDF1 mice. As to conditions: Mus musculus, Colon 26, 504 h; ip, 1.56 mg/kg once a day, days 1-9; day 21 or 22; read-out: Tumor growth inhibition rate IR (%). Put shortly: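 CDF1 female mice (7–9 weeks, 7 per group) implanted intracutaneously in the abdomen with 2% brei of colon 26 cells. Compound given ip once daily from day 1 to day 9. Tumor weight estimated from diameters on day 21 or 22; IR % = [1 − (treated MTW/control MTW)] × 100.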

Data set [5] can be described thus: Acute toxicity. The note with it: mouse, in vivo; Intraperitoneal administration (ip), mice, 14th day. The procedure: Solutions of test compounds in predetermined concentrations were administered (0.1 ml/10 g body weight) to female BALB/c CrSlc mice (5 to 10 animals per one group, 10 weeks old) respectively, and, thus, LD50 values were calculated from the mortalities of the mice on the 14th day after the administration.

[6] abbreviates: NCI criterion, read-out: Evaluation.
[7] abbreviates: days 1 and 5, in solution, read-out: ILS (%) (in solution).
[8] abbreviates: days 1 and 5, in suspension, read-out: ILS (%) (in suspension).

As for `CN[C@@H]1CN(c2ccc3c(=O)c(C(=O)O)cn(-c4nccs4)c3n2)C[C@H]1OC.Cl` (relative stereo) [Compound 1-1, 1,4-dihydro-7-(trans-3-methoxy-4-methylamino-1-pyrrolidinyl)-4-oxo-1-(2-thiazolyl)-1,8-naphthyridine-3-carboxylic acid hydrochloride], the IC50 (in general, the concentration that gives 50% inhibition) in data set [1] amounted to 0.15 µg/mL. Further, the IC50 in data set [2] was found to be 0.0871 µg/mL. In addition, in data set [3] (setting [6]), the ILS at 0.78 mg/kg lay within 20 to 74%, the ILS at 1.56 mg/kg lay in the range of 20 to 74%, the ILS at 3.13 mg/kg is above 75% and the ILS at 6.25 mg/kg was above 75%. Besides, in data set [3] (setting [6]), the ILS at 12.5 mg/kg is above 75%, the ILS at 25 mg/kg is above 75% and the ILS at 50 mg/kg is above 75%. Also, in data set [3] (setting [7]), the ILS at 0.78 mg/kg came out at 50%, the ILS at 1.56 mg/kg came to 63%, the ILS at 3.13 mg/kg was determined as 100% and the ILS at 6.25 mg/kg came out at 125%. In addition, in data set [3] (setting [7]), the ILS at 12.5 mg/kg is 150%, the ILS at 25 mg/kg worked out at 200% and the ILS at 50 mg/kg was above 275%. In addition, in data set [3] (setting [8]), the ILS at 3.13 mg/kg amounted to 88% and the ILS at 12.5 mg/kg was 175%. The inhibition in vivo at 1.56 mg/kg in data set [4] was found to be 86%. Besides, the median lethal dose (LD50) (commonly the dose at which mortality reaches 50%) at 336 h in data set [5] is 93.2 mg/kg.

These data come from patent US5817669A, “Compounds, processes for the preparation thereof and anti-tumor agents” (Dainippon Pharmaceutical Co., Ltd., priority 1994, dated 1998).
